Test results published in ChEMBL document CHEMBL1152950, “Cytotoxic activity and inhibitory effect on nitric oxide production of triterpene saponins from the roots of Physospermum verticillatum (Waldst & Kit) (Apiaceae)” (Bioorg Med Chem, 2009).

Columns and labels:
RAW264.7 [1] = assay: Antiinflammatory activity in LPS-stimulated mouse RAW264.7 cells assessed as inhibition of NO production after 24 hrs by Griess reagent method; format: functional, cell-based; details: for IC50: RAW264.7, 24 h
[2] = tested on: Radical scavenging activity; assay: Antioxidant activity assessed as DPPH radical scavenging activity by spectrophotometry; format: functional
ACHN = assay: Cytotoxicity against human ACHN cells after 48 hrs by SRB assay; format: functional, cell-based
[3] = Cytotoxicity against human Huh-7D12 cells after 48 hrs by SRB assay; format: functional, cell-based; details: Huh-7D12, 48 h
Caco-2 = assay: Cytotoxicity against human Caco-2 cells after 48 hrs by SRB assay; format: functional, cell-based; details: for IC50: Caco-2, 48 h
[4] = Cytotoxicity against human 142BR cells after 48 hrs by SRB assay; format: cell-based; details: for IC50: Homo sapiens; for Activity: human
RAW264.7 [5] = assay: Cytotoxicity against mouse RAW264.7 cells by MTT assay; format: cell-based
COR-L23 = assay: Cytotoxicity against human COR-L23 cells after 48 hrs by SRB assay; format: functional, cell-based; details: for IC50: COR-L23, 48 h
A-375 = assay: Cytotoxicity against human A375 cells after 48 hrs by SRB assay; format: functional, cell-based; details: for IC50: A-375, 48 h
C32 = assay: Cytotoxicity against human C32 cells after 48 hrs by SRB assay; format: functional, cell-based; details: for IC50: C32, 48 h
LNCaP = assay: Cytotoxicity against human LNCAP cells after 48 hrs by SRB assay; format: functional, cell-based
MCF7 [6] = assay: Cytotoxicity against human MCF7 cells after 48 hrs by SRB assay; format: functional, cell-based; details: MCF7, 48 h
A549 = assay: Cytotoxicity against human A549 cells after 48 hrs by SRB assay; format: functional, cell-based; details: A549, 48 h
HL-60 = assay: Cytotoxicity against human HL60 cells; format: functional, cell-based
HT-29 = assay: Cytotoxicity against human HT-29 cells; format: functional, cell-based
MCF7 [7] = assay: Cytotoxicity against human MCF7 cells; format: functional, cell-based
SK-OV-3 = assay: Cytotoxicity against human SKOV3 cells; format: functional, cell-based

IC50 (RAW264.7 [1]) | IC50 [2] | SMILES | Activity (RAW264.7 [1]) | Activity (ACHN) | IC50 (ACHN) | IC50 [3] | Activity (Caco-2) | IC50 (Caco-2) | IC50 [4] | Activity [4] | IC50 (RAW264.7 [5]) | Activity (COR-L23) | IC50 (COR-L23) | Activity (A-375) | IC50 (A-375) | Activity (C32) | IC50 (C32) | IC50 (LNCaP) | IC50 (MCF7 [6]) | IC50 (A549) | further results
– | – | COc1ccc2c(c1)c(CC(=O)O)c(C)n2C(=O)c1ccc(Cl)cc1 | Dose-dependent effect | – | – | – | – | – | – | – | – | – | – | – | – | – | – | – | – | – | –
– | – | O=C1O[C@H]([C@@H](O)CO)C(O)=C1O [ASCORBIC ACID] | – | – | – | – | – | – | – | – | – | – | – | – | – | – | – | – | – | – | IC50 ([2]; read-out: IC50): 0.002 µM
4.2 µM | Not Active | C[C@H]1O[C@@H](O[C@H]2CC[C@@]3(C)[C@@H](CC[C@]4(C)[C@@H]3C=C[C@]35OC[C@@]6(CCC(C)(C)C[C@H]63)[C@@H](O)C[C@]54C)[C@]2(C)CO)[C@H](O[C@@H]2O[C@H](CO)[C@@H](O)[C@H](O)[C@H]2O)[C@@H](O[C@@H]2O[C@H](CO)[C@@H](O)[C@H](O)[C@H]2O)[C@H]1O [BUDDLEJASAPONIN IV] | Dose-dependent effect | Dose-dependent effect | 7.9 µM | > 50 µM | Dose-dependent effect | 40.7 µM | > 50 µM | Dose-dependent effect | 10.6 µM | Dose-dependent effect | 0.4 µM | Dose-dependent effect | 14.6 µM | Dose-dependent effect | 26.9 µM | > 50 µM | > 50 µM | 38.3 µM | –
– | – | CC1(C)C[C@@H]2C3=CC[C@@H]4[C@@]5(C)CC[C@H](O[C@H]6OC[C@H](O)[C@H](O[C@@H]7O[C@H](CO)[C@@H](O)[C@H](O)[C@H]7O)[C@H]6O)C(C)(C)[C@@H]5CC[C@@]4(C)[C@]3(C)C[C@H](O)[C@@]2(CO)[C@H](OC(=O)c2ccccc2)C1 [GLOCHIERIOSIDE A] | – | – | – | – | – | – | – | – | – | – | – | – | – | – | – | – | – | – | IC50 (HL-60): 5.5 µM; IC50 (HT-29): 6.8 µM; IC50 (MCF7 [7]): 29.1 µM; IC50 (SK-OV-3): 22.7 µM
– | – | CC1(C)C[C@@H]2C3=CC[C@@H]4[C@@]5(C)CC[C@H](O[C@@H]6OC[C@@H](O)[C@H](O[C@@H]7O[C@H](CO)[C@@H](O)[C@H](O)[C@H]7O)[C@H]6O)C(C)(C)[C@@H]5CC[C@@]4(C)[C@]3(C)C[C@H](O)[C@@]2(CO)[C@H](OC(=O)c2ccccc2)C1 [GLOCHIERIOSIDE B] | – | – | – | – | – | – | – | – | – | – | – | – | – | – | – | – | – | – | IC50 (HL-60): 6.6 µM; IC50 (HT-29): 18.6 µM; IC50 (MCF7 [7]): 36.1 µM; IC50 (SK-OV-3): 16 µM
– | – | CC(=O)O[C@H]1C(=O)[C@@]2(C)[C@H]([C@H](OC(=O)c3ccccc3)[C@]3(O)C[C@H](OC(=O)[C@H](O)[C@@H](NC(=O)c4ccccc4)c4ccccc4)C(C)=C1C3(C)C)[C@]1(OC(C)=O)CO[C@@H]1C[C@@H]2O [PACLITAXEL] | – | Dose-dependent effect | – | – | Dose-dependent effect | – | – | Dose-dependent effect | – | Dose-dependent effect | – | Dose-dependent effect | – | Dose-dependent effect | – | – | 0.08 µM | – | –
102 µM | Not Active | C[C@H]1O[C@@H](O[C@H]2CC[C@@]3(C)[C@@H](CC[C@]4(C)[C@@H]3C=C[C@]35OC[C@@]6(CCC(C)(C)C[C@H]63)[C@@H](O)C[C@]54C)[C@]2(C)CO)[C@H](O)[C@@H](O[C@@H]2O[C@H](CO)[C@@H](O)[C@H](O)[C@H]2O)[C@H]1O [SAIKOSAPONIN A] | Dose-dependent effect | Dose-dependent effect | > 50 µM | > 50 µM | Dose-dependent effect | 17.9 µM | > 50 µM | Dose-dependent effect | > 200 µM | Dose-dependent effect | 0.6 µM | Dose-dependent effect | 23.9 µM | Dose-dependent effect | 43.5 µM | > 50 µM | > 50 µM | 17.7 µM | –
10.4 µM | Not Active | C[C@H]1O[C@@H](O[C@H]2CC[C@@]3(C)[C@@H](CC[C@]4(C)[C@@H]3C=C[C@]35OC[C@@]6(CCC(C)(C)C[C@H]63)[C@@H](O)C[C@]54C)[C@]2(C)CO)[C@H](O)[C@@H](O[C@@H]2O[C@H](CO)[C@@H](O)[C@H](O[C@@H]3O[C@H](CO)[C@@H](O)[C@H](O)[C@H]3O[C@@H]3O[C@H](CO)[C@@H](O)[C@H](O)[C@H]3O)[C@H]2O)[C@H]1O [SONGAROSAPONIN D] | Dose-dependent effect | Dose-dependent effect | 37.2 µM | > 50 µM | Dose-dependent effect | 16.7 µM | > 50 µM | Dose-dependent effect | 56.1 µM | Dose-dependent effect | 0.4 µM | Dose-dependent effect | 12.4 µM | Dose-dependent effect | 14 µM | > 50 µM | > 50 µM | 41.1 µM | –
– | – | CC[C@]1(O)C[C@@H]2CN(CCc3c([nH]c4ccccc34)[C@@](C(=O)OC)(c3cc4c(cc3OC)N(C)[C@H]3[C@@](O)(C(=O)OC)[C@H](OC(C)=O)[C@]5(CC)C=CCN6CC[C@]43[C@@H]65)C2)C1.O=S(=O)(O)O [VINBLASTINE SULFATE] | – | Dose-dependent effect | 22.7 µM | 45.6 µM | Dose-dependent effect | 69 µM | 37.6 µM | Dose-dependent effect | – | Dose-dependent effect | 45.5 µM | Dose-dependent effect | 7.2 µM | Dose-dependent effect | 3 µM | 29.3 µM | – | – | –
